Converted amounts (≈) assume the structure as drawn. “And” between values parts separate entries of the source, which are not always exact repeats. Equal entries are not always repeated. Where two headings read alike, the source gives them in different places.
Legend:
[1] = Intrinsic dissolution (USP dissolution apparatus 2, tablet in PTFE holder, UV at 266 nm); type: physicochemical; details: for average intrinsic dissolution rate / slope, average: average of samples 1-6, 0.01N HCl/methanol 1:1, 37° C.; for average intrinsic dissolution rate / slope, average / slope / intrinsic dissolution rate (IDR): 150 rpm; for slope, average: 0 to 60 min; for slope / intrinsic dissolution rate (IDR): single samples, 500 ml 0.01N HCl/methanol 1:1, 37° C.; for slope: slope calculated from 0 to 60 min; for intrinsic dissolution rate (IDR): tablet surface 0.5026 cm^2
Procedure: A Hanson Research SR6™ dissolution testing station equipped with a USP dissolution apparatus 2 as paddle and a poly(tetrafluoroethylene (PTFE) tablet holder was used. UV spectrometry was used to determine the concentration of TMC278 in solution. The UV analysis was carried out on an Agilent 8453™ spectrophotometer using a 2 ml cuvet. A single wavelength measurement at 266 nm was recorded with single component analysis (SCA), a single component measurement.
About 125 mg of the compound was weighed into a mould with a diameter of 0.8 cm. A tablet was made with a Speca press imposing a pressure of 1 ton for tabletting. The surface area of the tablet was 0.5026 cm^2. The tablet was adhered to the PTFE tablet holder.
21.8 mg of TMC278 was weighed into a volumetric flask of 25 ml. The product was dissolved in a 1:1.5 tetrahydrofuran/methanol mixture. A 1 ml aliquot was transferred into a 200 ml volumetric flask and diluted to the mark using 0.01N HCl. The concentration of the reference solution was […].
The tablet holders with the tablets were placed in a USP2 dissolution bath. The vessels contained 500 ml 0.01N HCl/methanol 1:1 and were thermostatically controlled at 37° C. The paddles were used with a rotation speed of 150 rpm (rounds per minute). A sample was withdrawn each 10 minutes and the concentration was determined with UV spectrometry. The slope was calculated on the measuring points between 0 and 60 minutes. The slope was expressed as mg %/minute. The intrinsic dissolution rate (IDR), expressed as mg/(cm^2×min), was calculated.

[2] = Solubility in buffer pH4, buffer pH2 and 0.01N HCl; type: physicochemical
wild type HIV = details: in words; described in WO 03/16306; cited from earlier work
[3] = test system: drug and multidrug resistant HIV strains; details: in words; strains resistant to NNRTIs such as efavirenz, nevirapine, delavirdine; cited from earlier work

## Cc1cc(/C=C/C#N)cc(C)c1Nc1ccnc(Nc2ccc(C#N)cc2)n1 [TMC278 polymorph I, (E) 4-[[4-[[4-(2-cyanoethenyl)-2,6-dimethylphenyl]amino]-2-pyrimidinyl]amino]benzonitrile]
[1]
  average intrinsic dissolution rate: 0.3362 mg/(cm^2 × min)
  slope, average: 0.0338 mg %/minute
  slope: 0.0358 mg %/minute and 0.0353 mg %/minute and 0.0309 mg %/minute and 0.0347 mg %/minute and 0.0343 mg %/minute and 0.0319 mg %/minute
  intrinsic dissolution rate (IDR): 0.3559 mg/(cm^2 × min) and 0.3508 mg/(cm^2 × min) and 0.3074 mg/(cm^2 × min) and 0.3447 mg/(cm^2 × min) and 0.3417 mg/(cm^2 × min) and 0.3169 mg/(cm^2 × min)
[1]; in words
  intrinsic dissolution rates, compared to Polymorph II: increased intrinsic dissolution rates
[2]; 0.01N HCl, pH 2.1
  Solubility: 4.1 mg/100 ml
[2]; Buffer pH4, pH 4.0
  Solubility: 0.07 mg/100 ml
[2]; buffer pH2, pH 2.1, aqueous buffer, Buffer pH2, pH 2.1, read-out: Solubility
  Solubility: 6.4 µg/mL (≈ 17.5 µM)
[2]; lower pH, in words
  solubility at lower pH, compared to Polymorph II: increased solubility at lower pH

## Cc1cc(/C=C/C#N)cc(C)c1Nc1ccnc(Nc2ccc(C#N)cc2)n1 [TMC278 polymorph II, 4-[[4-[[4-(2-cyanoethenyl)-2,6-dimethylphenyl]-amino]-2-pyrimidinyl]-amino-]-benzonitrile, reference compound]
[1]
  average intrinsic dissolution rate: 0.2886 mg/(cm^2 × min)
  slope, average: 0.0290 mg %/minute
  slope: 0.0283 mg %/minute and 0.0281 mg %/minute and 0.0290 mg %/minute and 0.0305 mg %/minute and 0.0288 mg %/minute and 0.0294 mg %/minute
  intrinsic dissolution rate (IDR): 0.2819 mg/(cm^2 × min) and 0.2795 mg/(cm^2 × min) and 0.2886 mg/(cm^2 × min) and 0.3035 mg/(cm^2 × min) and 0.2861 mg/(cm^2 × min) and 0.2921 mg/(cm^2 × min)
[1]; listed as polymorph II
  average intrinsic dissolution rate: 0.2886 mg/(cm^2 × min)
[2]; 0.01N HCl, pH 2.1
  Solubility: 1.9 mg/100 ml
[2]; Buffer pH4, pH 4.0
  Solubility: 0.03 mg/100 ml

## Cc1cc(/C=C/C#N)cc(C)c1Nc1ccnc(Nc2ccc(C#N)cc2)n1 [TMC278, 4-[[4-[[4-(2-cyanoethenyl)-2,6-dimethylphenyl]-amino]-2-pyrimidinyl]-amino-]-benzonitrile]
[2]; water, in words
  solubility in water: relatively low solubility in water
Wild type HIV
  activity against wild type HIV: pronounced activity
[3]
  activity against drug and multidrug resistant HIV strains: shows activity

Reference: patent publication US8426434B2, “Crystalline form of 4-[[4-[[4-(2-Cyanoethenyl)-2,6-dimethylphenyl]-amino]-2-pyrimidinyl]amino]benzonitrile” (Tibotec Pharmaceuticals Ltd., priority 2007, dated 2013)
